Read-outs that look alike come from different tables or passages of the source.
Legend:
[1] = molecular target: T1, catalytic domain of human Bub1 (amino acids 704-1085) (Homo sapiens, UniProt O43683); test: Bub1 kinase assay (TR-FRET); format: biochemical
T1 construct: catalytic domain of human Bub1 (amino acids 704-1085); His6 (N); made in house; host or cells: Hi5 insect cells
Protocol: To this end, 100-fold concentrated compound solutions (in DMSO) were previously prepared by serial dilution (1:3.4) of 2 mM stocks in a clear low volume 384-well source microtiter plate (Greiner Bio-One, Frickenhausen, Germany), from which 50 nL of compounds were transferred into a black low volume test microtiter plate from the same supplier. […] The resulting mixture (5 μL final volume) was incubated at 22° C. during 60 min., and the reaction was stopped by the addition of 5 μL of an aqueous EDTA-solution (50 mM EDTA, in 100 mM HEPES pH 7.5 and 0.2% (w/v) bovine serum albumin) which also contained the TR-FRET detection reagents (0.2 μM streptavidin-XL665 [Cisbio Bioassays, Codolet, France] and 1 nM anti-phoshoSerine antibody [Merck Millipore, cat. #35-001] and 0.4 nM LANCE EU-W1024 labeled anti-mouse IgG antibody [Perkin-Elmer, product no. AD0077, alternatively a Terbium-cryptate-labeled anti-mouse IgG antibody from Cisbio Bioassays can be used]). The stopped reaction mixture was further incubated 1 h at 22° C. in order to allow the formation of complexes between peptides and detection reagents. Subsequently, the amount of product was evaluated by measurement of the resonance energy transfer from the Eu-chelate-antibody complex recognizing the Phosphoserine residue to the streptavidin-XL665 bound to the biotin moiety of the peptide.

HeLa cell line = test: Proliferation assay (HeLa cell line); format: cell-based; conditions: Homo sapiens, 96 h, read-out: Biological Assay 2: Proliferation assay (HeLa cell line) median IC50
Protocol: Cultivated tumor cells (cells were ordered from ATCC, except HeLa-MaTu and HeLa-MaTu-ADR, which were ordered from EPO-GmbH, Berlin) were plated at a density of 1000 to 5000 cells/well, depending on the growth rate of the respective cell line, in a 96-well multititer plate in 200 μL of their respective growth medium supplemented 10% fetal calf serum. After 24 hours, the cells of one plate (zero-point plate) were stained with crystal violet (see below), while the medium of the other plates was replaced by fresh culture medium (200 μL), to which the test substances were added in various concentrations (0 μM, as well as in the range of 0.001-10 μM; the final concentration of the solvent dimethyl sulfoxide was 0.5%). The cells were incubated for 4 days in the presence of test substances. Cell proliferation was determined by staining the cells with crystal violet: the cells were fixed by adding 20 μL/measuring point of an 11% glutaric aldehyde solution for 15 minutes at room temperature. After three washing cycles of the fixed cells with water, the plates were dried at room temperature. The cells were stained by adding 100 μL/measuring point of a 0.1% crystal violet solution (pH 3.0). After three washing cycles of the stained cells with water, the plates were dried at room temperature. The dye was dissolved by adding 100 μl/measuring point of a 10% acetic acid solution. Absorbtion was determined by photometry at a wavelength of 595 nm. The change of cell number, in percent, was calculated by normalization of the measured values to the absorbtion values of the zero-point plate (=0%) and the absorbtion of the untreated (0 μm) cells (=100%). The IC50 values were determined by means of a 4 parameter fit.

[2] = 4 days incubation, crystal violet staining
[3] = 10 μM ATP, 1 μM peptide substrate, TR-FRET, read-out: Biological Assay 1: Bub1 kinase assay median IC50

T1 sequence (O43683 704-1085): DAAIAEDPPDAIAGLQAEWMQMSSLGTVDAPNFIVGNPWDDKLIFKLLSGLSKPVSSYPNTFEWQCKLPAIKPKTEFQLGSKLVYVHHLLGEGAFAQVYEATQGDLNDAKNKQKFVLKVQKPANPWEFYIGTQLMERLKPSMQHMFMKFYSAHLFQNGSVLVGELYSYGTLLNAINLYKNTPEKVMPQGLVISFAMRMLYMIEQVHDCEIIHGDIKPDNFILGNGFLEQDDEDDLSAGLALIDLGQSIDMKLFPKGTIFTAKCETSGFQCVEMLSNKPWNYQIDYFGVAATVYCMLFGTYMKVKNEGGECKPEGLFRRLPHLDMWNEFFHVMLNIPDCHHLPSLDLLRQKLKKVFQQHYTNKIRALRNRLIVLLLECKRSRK

Row | IC50 [1] [nM] | IC50 (HeLa cell line; [2]) [nM] | IC50 [1, 3] [nM] | IC50 (HeLa cell line) [nM] | SMILES
1 | 1000 | 10000 | – | – | CCOc1cc(F)c(Cn2nc(-c3nc(Nc4ccnnc4)cc(Nc4ccnnc4)n3)c(C)c2C2CC2)c(F)c1 [Example 2-2-10, 2-[5-cyclopropyl-1-(4-ethoxy-2,6-difluorobenzyl)-4-methyl-1H-pyrazol-3-yl]-N,N′-di(pyridazin-4-yl)pyrimidine-4,6-diamine]
2 | 120 | 10000 | – | – | CCOc1cc(F)c(Cn2nc(-c3nc(Nc4ccncn4)c(OCCOC)c(Nc4ccncn4)n3)c(C)c2C2CC2)c(F)c1 [Example 2-2-13, 2-[5-cyclopropyl-1-(4-ethoxy-2,6-difluorobenzyl)-4-methyl-1H-pyrazol-3-yl]-5-(2-methoxyethoxy)-N,N′-di(pyrimidin-4-yl)pyrimidine-4,6-diamine]
3 | – | – | 1400 | 5500 | CCOc1cc(F)c(Cn2nc(-c3nc(NC(=O)NC4CCCCC4)c(OC)c(Nc4ccncn4)n3)c(C)c2C2CC2)c(F)c1 [Example 2-1-17, 1-cyclohexyl-3-{2-[5-cyclopropyl-1-(4-ethoxy-2,6-difluorobenzyl)-4-methyl-1H-pyrazol-3-yl]-5-methoxy-6-(pyrimidin-4-ylamino)pyrimidin-4-yl}urea]
4 | – | – | 12 | 5200 | CCOc1cc(F)c(Cn2nc(-c3nc(N)c(N4CCOCC4)c(Nc4ccncc4)n3)c(C)c2C2CC2)c(F)c1 [Example 2-1-6, 2-[5-cyclopropyl-1-(4-ethoxy-2,6-difluorobenzyl)-4-methyl-1H-pyrazol-3-yl]-5-(morpholin-4-yl)-N-(pyridin-4-yl)pyrimidine-4,6-diamine]
5 | – | – | 180 | > 10000 | CCOc1cc(F)c(Cn2nc(-c3nc(Nc4ccncn4)c(OC)c(Nc4ccncn4)n3)c(C)c2C2CC2)c(F)c1 [Example 2-2-5, 2-[5-cyclopropyl-1-(4-ethoxy-2,6-difluorobenzyl)-4-methyl-1H-pyrazol-3-yl]-5-methoxy-N,N′-di(pyrimidin-4-yl)pyrimidine-4,6-diamine]
6 | 7.1 | 3800 | – | – | CCOc1cc(F)c(Cn2nc(-c3nc(N)nc(Nc4ccncc4)n3)c(C)c2C2CC2)c(F)c1 [Example 2-1-8, 6-[5-cyclopropyl-1-(4-ethoxy-2,6-difluorobenzyl)-4-methyl-1H-pyrazol-3-yl]-N-(pyridin-4-yl)-1,3,5-triazine-2,4-diamine]
7 | – | – | 260 | 7500 | CCOc1cc(F)c(Cn2nc(-c3nc(N)cc(Nc4ccnc(OC)c4)n3)c(C)c2C2CC2)c(F)c1 [Example 2-1-2, 2-[5-cyclopropyl-1-(4-ethoxy-2,6-difluorobenzyl)-4-methyl-1H-pyrazol-3-yl]-N-(2-methoxypyridin-4-yl)pyrimidine-4,6-diamine]
8 | – | – | 150 | 2200 | CCNC(=O)Nc1c(Nc2ccncc2)nc(-c2nn(Cc3c(F)cc(OCC)cc3F)c(C3CC3)c2C)nc1Nc1ccncc1 [Example 2-2-16, 1-{2-[5-cyclopropyl-1-(4-ethoxy-2,6-difluorobenzyl)-4-methyl-1H-pyrazol-3-yl]-4,6-bis(pyridin-4-ylamino)pyrimidin-5-yl}-3-ethylurea]
9 | 340 | 3300 | – | – | CCOc1cc(F)c(Cn2nc(-c3nc(NC(=O)NC4CCCCC4)c(OC)c(Nc4ccncc4)n3)c(C)c2C2CC2)c(F)c1 [Example 2-1-16, 1-cyclohexyl-3-{2-[5-cyclopropyl-1-(4-ethoxy-2,6-difluorobenzyl)-4-methyl-1H-pyrazol-3-yl]-5-methoxy-6-(pyridin-4-ylamino)pyrimidin-4-yl}urea]
10 | – | – | 310 | 3800 | CCNC(=O)Nc1nc(-c2nn(Cc3c(F)cc(OCC)cc3F)c(C3CC3)c2C)nc(Nc2ccncc2)c1OC [Example 2-1-14, 1-{2-[5-cyclopropyl-1-(4-ethoxy-2,6-difluorobenzyl)-4-methyl-1H-pyrazol-3-yl]-5-methoxy-6-(pyridin-4-ylamino)pyrimidin-4-yl}-3-ethylurea]
11 | – | – | 350 | 2800 | CCOc1cc(F)c(Cn2nc(-c3nc(Nc4ccncc4)c(NC(=O)COC)c(Nc4ccncc4)n3)c(C)c2C2CC2)c(F)c1 [Example 2-2-14, N-{2-[5-cyclopropyl-1-(4-ethoxy-2,6-difluorobenzyl)-4-methyl-1H-pyrazol-3-yl]-4,6-bis(pyridin-4-ylamino)pyrimidin-5-yl}-2-methoxyacetamide]
12 | – | – | 760 | > 10000 | CCOc1cc(F)c(Cn2nc(-c3nc(Nc4ccncc4)c(NS(=O)(=O)CC)c(Nc4ccncc4)n3)c(C)c2C2CC2)c(F)c1 [Example 2-2-17, N-{2-[5-cyclopropyl-1-(4-ethoxy-2,6-difluorobenzyl)-4-methyl-1H-pyrazol-3-yl]-4,6-bis(pyridin-4-ylamino)pyrimidin-5-yl}ethanesulfonamide]
13 | – | – | 10 | > 10000 | CCOc1cc(F)c(Cn2nc(-c3nc(N)cc(Nc4ccncc4)n3)c(C)c2C2CC2)c(F)c1 [Example 2-1-1, 2-[5-cyclopropyl-1-(4-ethoxy-2,6-difluorobenzyl)-4-methyl-1H-pyrazol-3-yl]-N-(pyridin-4-yl)pyrimidine-4,6-diamine]
14 | – | – | 12 | > 10000 | CCOc1cc(F)c(Cn2nc(-c3nc4c(c(Nc5ccncc5)n3)OCC(=O)N4)c(C)c2C2CC2)c(F)c1 [Example 2-1-32, 2-[5-cyclopropyl-1-(4-ethoxy-2,6-difluorobenzyl)-4-methyl-1H-pyrazol-3-yl]-4-(pyridin-4-ylamino)-6H-pyrimido[5,4-b][1,4]oxazin-7(8H)-one]
15 | – | – | 10 | 3000 | CCOc1cc(F)c(Cn2nc(-c3nc(N)c(OCCOC)c(Nc4ccncc4)n3)c(C)c2C2CC2)c(F)c1 [Example 2-1-25, 2-[5-cyclopropyl-1-(4-ethoxy-2,6-difluorobenzyl)-4-methyl-1H-pyrazol-3-yl]-5-(2-methoxyethoxy)-N-(pyridin-4-yl)pyrimidine-4,6-diamine]
16 | 290 | 10000 | – | – | CCNC(=O)Nc1nc(-c2nn(Cc3c(F)cc(OCC)cc3F)c(C3CC3)c2C)nc(Nc2ccncc2)c1N1CCOCC1 [Example 2-1-18, 1-{2-[5-cyclopropyl-1-(4-ethoxy-2,6-difluorobenzyl)-4-methyl-1H-pyrazol-3-yl]-5-(morpholin-4-yl)-6-(pyridin-4-ylamino)pyrimidin-4-yl}-3-ethylurea]
17 | – | – | 8.8 | > 10000 | CCOc1cc(F)c(Cn2nc(-c3nc(N)c(NS(=O)(=O)CC)c(Nc4ccncc4)n3)c(C)c2C2CC2)c(F)c1 [Example 2-1-30, N-{4-amino-2-[5-cyclopropyl-1-(4-ethoxy-2,6-difluorobenzyl)-4-methyl-1H-pyrazol-3-yl]-6-(pyridin-4-ylamino)pyrimidin-5-yl}ethanesulfonamide]
18 | 59 | 9800 | – | – | C=CC(=O)Nc1cc(Nc2ccncc2)nc(-c2nn(Cc3c(F)cc(OCC)cc3F)c(C3CC3)c2C)n1 [Example 2-1-22, N-{2-[5-cyclopropyl-1-(4-ethoxy-2,6-difluorobenzyl)-4-methyl-1H-pyrazol-3-yl]-6-(pyridin-4-ylamino)pyrimidin-4-yl}prop-2-enamide]
19 | – | – | 19 | 5300 | CCNC(=O)Nc1c(N)nc(-c2nn(Cc3c(F)cc(OCC)cc3F)c(C3CC3)c2C)nc1Nc1ccncc1 [Example 2-1-29, 1-{4-amino-2-[5-cyclopropyl-1-(4-ethoxy-2,6-difluorobenzyl)-4-methyl-1H-pyrazol-3-yl]-6-(pyridin-4-ylamino)pyrimidin-5-yl}-3-ethylurea]

— patent US20160145267A1, “HETEROARYL SUBSTITUTED PYRAZOLES” (BAYER PHARMA AKTIENGESELLSCHAFT, priority 2013, published 2016)
